{"source": "patent US7579475B2", "about": "“S-(-)-amlodipine nicotinate and process for the preparation thereof” (Hanlim Pharmaceutical Co., Ltd., priority 2002, dated 2009)", "key": {"[1]": {"assay": "Photostability test (incandescent lamp, 3 weeks)", "protocol": "1.0 g of S-(−)-amlodipine besylate prepared, using S-(−)-amlodipine, in accordance with U.S. Pat. No. 4,879,303 and 1.0 g of S-(−)-amlodipine nicotinate dihydrate obtained in Example 1, which were placed in glass schales (100×20 mm), were exposed at 25-30° C. for 3 weeks under an incandescent lamp (220V, 100 W) that was placed at 30 cm above the samples."}, "[2]": {"test_system": "spontaneously hypertensive rats (SHRs)", "assay": "In vivo anti-hypertensive activity in spontaneously hypertensive rats (tail-cuff systolic blood pressure)", "design": "species or system rat", "settings": "SHR; for Maximal anti-hypertensive effect (change of systolic blood pressure) / Intensity (maximal effect of S-(−)-amlodipine nicotinate to maximal effect of amlodipine nicotinate) / ED20 (amount necessary for 20% decrease in the blood pressure) / Intensity (reverse ratio of ED20 values relative to amlodipine nicotinate): oral; for Maximal anti-hypertensive effect (change of systolic blood pressure): mean % ± S.E.M.; for Effect on blood pressure (in words): oral, 1, 3 and 10 mg/kg", "protocol": "Male SHRs (Charles Rever Co., Japan) aged 13-14 weeks were used.\nThe SHRs having a systolic blood pressure over 170 mmHg were divided into 7 groups, i.e., Test Groups 1 to 3 (for amlodipine nicotinate), Test Groups 4 to 6 (for S-(−)-amlodipine nicotinate) and a Control Group. Each Test Group and Control Group consisted of 6-8 SHRs (n=6-8).\nThe test compounds were dissolved in distilled water to prepare test solutions immediately prior to administration. The test solutions of amlodipine nicotinate and S-(−)-amlodipine nicotinate were prepared by dissolving 1, 3, and 10 mg/kg in distilled water (0.5 ml/100 g rat), respectively, and then administered orally to each Test Group. The vehicle (distilled water) was administered to Control Group.\nThe systolic blood pressure was measured with Multichannel 8000 (TSE Co., Germany), using a tail-cuff method. That is, the systolic blood pressures of a tail artery of each rat were measured before the administration of the test solutions and after 2, 4, 6, 8, 10, and 24 hours from the administration thereof. In order to facilitate the measurement of blood pressures, the test animals of each Group underwent warming at 37° C. for about 10 minutes before the measurements.\nStatistical analysis of the test results were conducted by an unpaired t-test and ANOVA (one-way analysis of variance) with Sigma Stat program (Jandel Co., USA). The secondary evaluations were conducted by a Dunnett's multiple comparison test."}, "[3]": {"settings": "listed as S-(−)-Amlodipine nicotinate, dihydrate"}}}
{"smiles": "CCOC(=O)C1=C(COCCN)NC(C)=C(C(=O)OC)[C@@H]1c1ccccc1Cl.O=S(=O)(O)c1ccccc1", "note": "[S-(−)-amlodipine besylate]", "values": [{"measurement": "Water contents absorbed during the photostability test", "setting": "[1]; 25-30° C., 3 weeks under incandescent lamp", "result": "1.5-2.5"}]}
{"smiles": "CCOC(=O)C1=C(COCCN)NC(C)=C(C(=O)OC)C1c1ccccc1Cl", "note": "(stereo not drawn) [S-(−)-amlodipine nicotinate, S-(−)-amlodipine nicotinate dihydrate]", "values": [{"measurement": "Difference in 1H-NMR before and after photostability test", "setting": "[1]", "result": "no significant difference"}, {"measurement": "Photostability (overall conclusion)", "setting": "[1]", "result": "improved photostability"}, {"measurement": "Maximal anti-hypertensive effect (change of systolic blood pressure)", "setting": "[2]; 1 mg/kg", "result": "−12.4 ± 1.73", "unit": "%"}, {"measurement": "Intensity (maximal effect of S-(−)-amlodipine nicotinate to maximal effect of amlodipine nicotinate)", "setting": "[2]; 3 mg/kg", "result": 1.06}, {"measurement": "Maximal anti-hypertensive effect (change of systolic blood pressure)", "setting": "[2]; 3 mg/kg", "result": "−28.3 ± 3.31", "unit": "%"}, {"measurement": "Intensity (maximal effect of S-(−)-amlodipine nicotinate to maximal effect of amlodipine nicotinate)", "setting": "[2]; 10 mg/kg", "result": 1.07}, {"measurement": "Maximal anti-hypertensive effect (change of systolic blood pressure)", "setting": "[2]; 10 mg/kg", "result": "−43.6 ± 1.65", "unit": "%"}, {"measurement": "Effect on blood pressure (in words)", "setting": "[2]", "result": "dose-dependently reduced blood pressures"}, {"measurement": "ED20 (amount necessary for 20% decrease in the blood pressure)", "setting": "[2]; dihydrate", "result": "1.91 ± 0.49", "unit": "mg/kg"}, {"measurement": "Intensity (reverse ratio of ED20 values relative to amlodipine nicotinate)", "setting": "[2]; dihydrate", "result": "about 1.15"}, {"measurement": "ED20 (amount necessary for 20% decrease in the blood pressure)", "setting": "[2]; [3]", "result": "1.91 ± 0.49", "unit": "mg/kg"}, {"measurement": "Intensity (reverse ratio of ED20 values relative to amlodipine nicotinate)", "setting": "[2]; [3]", "result": 1.15}]}
{"smiles": "CCOC(=O)C1=C(COCCN)NC(C)=C(C(=O)OC)[C@@H]1c1ccccc1Cl.O=C(O)c1cccnc1", "note": "[amlodipine nicotinate]", "values": [{"measurement": "ED20 (amount necessary for 20% decrease in the blood pressure)", "setting": "[2]", "result": "2.19 ± 0.57", "unit": "mg/kg"}, {"measurement": "Intensity (reverse ratio of ED20 values relative to amlodipine nicotinate)", "setting": "[2]", "result": 1.00}, {"measurement": "Maximal anti-hypertensive effect (change of systolic blood pressure)", "setting": "[2]; 1 mg/kg", "result": "−10.20 ± 2.71", "unit": "%"}, {"measurement": "Maximal anti-hypertensive effect (change of systolic blood pressure)", "setting": "[2]; 3 mg/kg", "result": "−26.8 ± 3.22", "unit": "%"}, {"measurement": "Maximal anti-hypertensive effect (change of systolic blood pressure)", "setting": "[2]; 10 mg/kg", "result": "−40.9 ± 2.08", "unit": "%"}, {"measurement": "Effect on blood pressure (in words)", "setting": "[2]", "result": "dose-dependently reduced blood pressures"}, {"measurement": "ED20 (amount necessary for 20% decrease in the blood pressure)", "setting": "[2]; listed as Amlodipine nicotinate", "result": "2.19 ± 0.57", "unit": "mg/kg"}]}
